Measured values from patent US9365499B2, “9-aminomethyl substituted tetracycline compounds” (KBP Biosciences Co., Ltd., priority 2011, dated 2016).
Values after ≈ are worked out from the molar mass of the structure shown. Read-outs that look alike come from different tables or passages of the source.

What was measured:
Assay in all cases: antibacterial activity in vitro, agar dilution method
Assay type in all cases: cell-based
[1] = tested on: Acinetobacter baumannii; details: read-out: antibacterial activity MIC, Acinetobacter baumannii
From the text: (§1) The antibacterial spectrum and in vitro antibacterial activity of the compound of the present invention
(§2) Experimental method: the agar dilution method, with reference to Clinical And Laboratory Standards Institute. Methods for Dilution Antimicrobial Susceptibility Tests for Bacteria That Grow Aerobically; Approved Standard-Seventh Edition. CLSI Document M7-A7. Vol 26, no. 2, Wayne, Pa.: Clinical and Laboratory Standards Institute, 2006.
(§3) Wherein MIC represents the minimum inhibitory concentration, MIC90 represents the 90% inhibitory concentration.

[2] = tested on: Methicillin-resistant Staphycoccus epidermidis (MRSE); details: Staphylococcus epidermidis, Table 3
From the text: as §1, §2, §3

[3] = tested on: Klebsiella oxytoca; details: Table 3
From the text: as §1, §2, §3

[4] = tested on: Klebsiella pneumoniae
From the text: as §1, §2, §3

[5] = tested on: Escherichia coli
From the text: as §1, §2, §3

[6] = tested on: Methicillin-resistant Staphylococcus aureus (MRSA)
From the text: as §1, §2, §3

[7] = tested on: Enterococcus faecalis; details: Table 4
From the text: as §1, §2, §3

[8] = tested on: Acinetobacter calcoaceticus; details: Table 4
From the text: as §1, §2, §3

[9] = tested on: Streptococus agalactiae; details: Table 4
From the text: as §1, §2, §3

Row | MIC ([1]; Table 3, agar dilution) | MIC [2] | MIC [3] | MIC ([4]; Table 3) | MIC ([5]; Table 3) | MIC ([6]; Table 3, agar dilution) | MIC [7] | MIC ([1]; Table 4, agar dilution) | MIC [8] | MIC ([4]; Table 4) | MIC ([5]; Table 4) | MIC ([6]; Table 4, agar dilution) | MIC [9] | Compound
1 | 1 µg/mL (≈ 1.8 µM) | 1 µg/mL (≈ 1.8 µM) | 1 µg/mL (≈ 1.8 µM) | 2 µg/mL (≈ 3.61 µM) | 1 µg/mL (≈ 1.8 µM) | 0.5 µg/mL (≈ 0.901 µM) | – | – | – | – | – | – | – | CN(C)c1cc(CN2CC(C)(C)C2)c(O)c2c1C[C@H]1C[C@H]3[C@H](N(C)C)C(O)=C(C(N)=O)C(=O)[C@@]3(O)C(O)=C1C2=O [Compound 1, (4S,4aS,5aR,12aS)-9-((3,3-dimethylazetidin-1-yl)methyl)-4,7-bis(dimethylamino)-3,10,12,12a-tetrahydroxy-1,1′-dioxo-1,4,4a,5,5a,6,11,12a-octahydrotetracene-2-carboxamide]
2 | 1 µg/mL (≈ 1.66 µM) | 0.5 µg/mL (≈ 0.83 µM) | 1 µg/mL (≈ 1.66 µM) | 1 µg/mL (≈ 1.66 µM) | 1 µg/mL (≈ 1.66 µM) | 0.5 µg/mL (≈ 0.83 µM) | – | – | – | – | – | – | – | CN(C)c1cc(CN2CC3(C2)CC(F)(F)C3)c(O)c2c1C[C@H]1C[C@H]3[C@H](N(C)C)C(O)=C(C(N)=O)C(=O)[C@@]3(O)C(O)=C1C2=O [Compound 16, (4S,4aS,5aR,12aS)-9-((6,6-difluoro-2-azaspiro[3.3]heptan-2-yl)methyl)-4,7-bis(dimethylamino)-3,10,12,12a-tetrahydroxy-1,1′-dioxo-1,4,4a,5,5a,6,11,12a-octahydrotetracene-2-carboxamide]
3 | 0.25 µg/mL (≈ 0.459 µM) | 0.5 µg/mL (≈ 0.918 µM) | 0.25 µg/mL (≈ 0.459 µM) | 1 µg/mL (≈ 1.84 µM) | 1 µg/mL (≈ 1.84 µM) | 0.5 µg/mL (≈ 0.918 µM) | – | – | – | – | – | – | – | CN(C)c1cc(CN2CC(F)C2)c(O)c2c1C[C@H]1C[C@H]3[C@H](N(C)C)C(O)=C(C(N)=O)C(=O)[C@@]3(O)C(O)=C1C2=O [Compound 19, (4S,4aS,5aR,12aS)-4,7-bis(dimethylamino)-9-((3-fluoroazetidin-1-yl)methyl)-3,10,12,12a-tetrahydroxy-1,11-dioxo-1,4,4a,5,5a,6,11,12a-octahydrotetracene-2-carboxamide]
4 | – | – | – | – | – | – | 0.125 µg/mL (≈ 0.215 µM) | 0.5 µg/mL (≈ 0.861 µM) | 0.125 µg/mL (≈ 0.215 µM) | 4 µg/mL (≈ 6.89 µM) | 2 µg/mL (≈ 3.44 µM) | 0.5 µg/mL (≈ 0.861 µM) | 0.125 µg/mL (≈ 0.215 µM) | CN(C)c1cc(CN2CC3C(C2)C3(C)C)c(O)c2c1C[C@H]1C[C@H]3[C@H](N(C)C)C(O)=C(C(N)=O)C(=O)[C@@]3(O)C(O)=C1C2=O (stereo partly drawn) [Compound 27, (4S,4aS,5aR,12aS)-9-((6-dimethyl-3-azabicyclo[3.1.0]hexan-3-yl)methyl)-4,7-bis(dimethylamino)-3,10,12,12a-tetrahydroxy-1,1′-dioxo-1,4,4a,5,5a,6,11,12a-octahydrotetracene-2-carboxamide]
5 | – | – | – | – | – | – | 0.06 µg/mL (≈ 0.103 µM) | 1 µg/mL (≈ 1.72 µM) | 0.125 µg/mL (≈ 0.215 µM) | 2 µg/mL (≈ 3.44 µM) | 1 µg/mL (≈ 1.72 µM) | 0.5 µg/mL (≈ 0.861 µM) | 0.125 µg/mL (≈ 0.215 µM) | CN(C)c1cc(CN2CC3CCCC3C2)c(O)c2c1C[C@H]1C[C@H]3[C@H](N(C)C)C(O)=C(C(N)=O)C(=O)[C@@]3(O)C(O)=C1C2=O (stereo partly drawn) [Compound 28, (4S,4aS,5aR,12aS)-4,7-bis(dimethylamino)-9-((hexahydrocyclopenta[c]pyrrol-2(1H)-yl)methyl)-3,10,12,12a-tetrahydroxy-1,1′-dioxo-1,4,4a,5,5a,6,11,12a-octahydrotetracene-2-carboxamide]
6 | – | – | – | – | – | – | 0.125 µg/mL (≈ 0.21 µM) | 2 µg/mL (≈ 3.36 µM) | 0.25 µg/mL (≈ 0.42 µM) | 4 µg/mL (≈ 6.73 µM) | 1 µg/mL (≈ 1.68 µM) | 1 µg/mL (≈ 1.68 µM) | 0.25 µg/mL (≈ 0.42 µM) | CN(C)c1cc(CN2CC3CCCCC3C2)c(O)c2c1C[C@H]1C[C@H]3[C@H](N(C)C)C(O)=C(C(N)=O)C(=O)[C@@]3(O)C(O)=C1C2=O (stereo partly drawn) [Compound 29, (4S,4aS,5aR,12aS)-9-((1H-isoindol-2(3H,3aH,4H,5H,6H,7H,7aH)-yl)methyl)-4,7-bis(dimethylamino)-3,10,12,12a-tetrahydroxy-1,11-dioxo-1,4,4a,5,5a,6,11,12a-octahydrotetracene-2-carboxamide]
7 | – | – | – | – | – | – | 0.5 µg/mL (≈ 0.821 µM) | 4 µg/mL (≈ 6.57 µM) | 0.5 µg/mL (≈ 0.821 µM) | 16 µg/mL (≈ 26.3 µM) | 4 µg/mL (≈ 6.57 µM) | 1 µg/mL (≈ 1.64 µM) | 0.25 µg/mL (≈ 0.411 µM) | CN(C)c1cc(CN2CCC3CCCCC3C2)c(O)c2c1CC1CC3[C@H](N(C)C)C(O)=C(C(N)=O)C(=O)[C@@]3(O)C(O)=C1C2=O (some centres unmarked) [Compound c, reference compound]
8 | 4 µg/mL (≈ 6.57 µM) | 2 µg/mL (≈ 3.29 µM) | 8 µg/mL (≈ 13.1 µM) | 8 µg/mL (≈ 13.1 µM) | 2 µg/mL (≈ 3.29 µM) | 1 µg/mL (≈ 1.64 µM) | – | – | – | – | – | – | – | CN(C)c1cc(CN2CCC3(CCCC3)CC2)c(O)c2c1CC1CC3[C@H](N(C)C)C(O)=C(C(N)=O)C(=O)[C@@]3(O)C(O)=C1C2=O (some centres unmarked) [Compound d, reference compound]

Row | Compound | MIC ([1]; Table 3, agar dilution) | MIC [2] | MIC [3] | MIC ([4]; Table 3) | MIC ([5]; Table 3) | MIC ([6]; Table 3, agar dilution) | MIC [7] | MIC ([1]; Table 4, agar dilution) | MIC [8] | MIC ([4]; Table 4) | MIC ([5]; Table 4) | MIC ([6]; Table 4, agar dilution) | MIC [9]
9 | CN(C)c1cc(CN2CC3CC(C3)C2)c(O)c2c1C[C@H]1C[C@H]3[C@H](N(C)C)C(O)=C(C(N)=O)C(=O)[C@@]3(O)C(O)=C1C2=O [Compound 24, (4S,4aS,5aR,12aS)-9-(3-azabicyclo[3.1.1]heptan-3-ylmethyl)-4,7-bis(dimethylamino)-3,10,12,12a-tetrahydroxy-1,1′-dioxo-1,4,4a,5,5a,6,11,12a-octahydrotetracene-2-carboxamide] | – | – | – | – | – | – | 0.25 µg/mL (≈ 0.441 µM) | 1 µg/mL (≈ 1.76 µM) | 0.25 µg/mL (≈ 0.441 µM) | 2 µg/mL (≈ 3.53 µM) | 1 µg/mL (≈ 1.76 µM) | 0.5 µg/mL (≈ 0.882 µM) | 0.125 µg/mL (≈ 0.221 µM)
